From ChEMBL document CHEMBL3232987, “Investigation of Ugi-4CC derived 1H-tetrazol-5-yl-(aryl) methyl piperazinyl-6-fluoro-4-oxo-1,4-dihydroquinoline-3-carboxylic acid: synthesis, biology and 3D-QSAR analysis” (Eur J Med Chem, 2014)
Converted amounts (≈) assume the structure as drawn.

How the values were obtained:
[1] = tested on: Staphylococcus aureus; test: Antibacterial activity against Staphylococcus aureus ATCC 29213 by NCCLS two-fold dilution method; assay type: functional
[2] = tested on: Staphylococcus aureus; test: Antibacterial activity against Staphylococcus aureus ATCC 25923 after 24 hrs by spectrophotometric analysis; assay type: functional, organism-based; conditions: Staphylococcus aureus, ATCC 25923, 24 h; for IC50: read-out: IC50
[3] = tested on: Staphylococcus aureus; test: Antibacterial activity against Staphylococcus aureus ATCC 29213 after 24 hrs by spectrophotometric analysis; assay type: functional, organism-based; conditions: Staphylococcus aureus, ATCC 29213, 24 h; for IC50: read-out: IC50
[4] = tested on: Staphylococcus aureus; test: Antibacterial activity against gentamicin-resistant Staphylococcus aureus ATCC 33592 by NCCLS two-fold dilution method; assay type: functional
[5] = tested on: Staphylococcus aureus; test: Antibacterial activity against methicillin-resistant Staphylococcus aureus ATCC 700699 after 24 hrs by spectrophotometric analysis; assay type: functional, organism-based; conditions: Staphylococcus aureus, ATCC 700699, 24 h; for IC50: read-out: IC50
[6] = tested on: Staphylococcus aureus; test: Antibacterial activity against methicillin-resistant Staphylococcus aureus ATCC 700699 by NCCLS two-fold dilution method; assay type: functional
[7] = tested on: Staphylococcus aureus; test: Antibacterial activity against gentamicin-resistant Staphylococcus aureus ATCC 33592 after 24 hrs by spectrophotometric analysis; assay type: functional, organism-based; conditions: Staphylococcus aureus, ATCC 33592, 24 h; for IC50: read-out: IC50
[8] = tested on: Staphylococcus aureus; test: Antibacterial activity against Staphylococcus aureus ATCC 25923 by NCCLS two-fold dilution method; assay type: functional; conditions: for MIC: Staphylococcus aureus, ATCC 25923

| Compound | MIC [1] [µg/mL] | MIC [2] [µg/mL] | IC50 [2] [µg/mL] | MIC [3] [µg/mL] | IC50 [3] [µg/mL] | MIC [4] [µg/mL] | MIC [5] [µg/mL] | IC50 [5] [µg/mL] | MIC [6] [µg/mL] | MIC [7] [µg/mL] | IC50 [7] [µg/mL] | -logMIC [8] | MIC [8] [µg/mL] |
| --- | --- | --- | --- | --- | --- | --- | --- | --- | --- | --- | --- | --- | --- |
| CCn1cc(C(=O)O)c(=O)c2cc(F)c(N3CCN(C(c4ccc(F)cc4)c4nnnn4C4CCCCC4)CC3)cc21 (stereo not given) | 50 (≈ 86.6 µM) | 2.1 (≈ 3.64 µM) | 0.5 (≈ 0.866 µM) | > 50 | 50 (≈ 86.6 µM) | 50 (≈ 86.6 µM) | 50 (≈ 86.6 µM) | 50 (≈ 86.6 µM) | 50 (≈ 86.6 µM) | 50 (≈ 86.6 µM) | 50 (≈ 86.6 µM) | 5.568 | 1.56 (≈ 2.7 µM) |
| O=C(O)c1cn(Cc2ccc(C(F)(F)F)cc2)c2cc(N3CCN(C(c4ccccc4)c4nnnn4C4CCCCC4)CC3)c(F)cc2c1=O (stereo not given) | 6.25 (≈ 9.06 µM) | 17.5 (≈ 25.4 µM) | 5.2 (≈ 7.54 µM) | 4.4 (≈ 6.38 µM) | 2.2 (≈ 3.19 µM) | 25 (≈ 36.2 µM) | > 50 | > 50 | > 50 | 40.5 (≈ 58.7 µM) | 21 (≈ 30.4 µM) | 4.741 | 12.5 (≈ 18.1 µM) |
| COc1ccc(C(c2nnnn2C(C)(C)C)N2CCN(c3cc4c(cc3F)c(=O)c(C(=O)O)cn4Cc3ccc(C(F)(F)F)cc3)CC2)c(OC)c1OC (stereo not given) | 50 (≈ 66.3 µM) | 50 (≈ 66.3 µM) | 50 (≈ 66.3 µM) | 50 (≈ 66.3 µM) | 50 (≈ 66.3 µM) | 50 (≈ 66.3 µM) | 50 (≈ 66.3 µM) | 50 (≈ 66.3 µM) | 50 (≈ 66.3 µM) | 50 (≈ 66.3 µM) | 50 (≈ 66.3 µM) | 4.178 | 50 (≈ 66.3 µM) |
| CC(C)(C)n1nnnc1C(c1ccccc1)N1CCN(c2cc3c(cc2F)c(=O)c(C(=O)O)cn3Cc2ccc(C(F)(F)F)cc2)CC1 (stereo not given) | 25 (≈ 37.7 µM) | 50 (≈ 75.3 µM) | 50 (≈ 75.3 µM) | 50 (≈ 75.3 µM) | 50 (≈ 75.3 µM) | 12.5 (≈ 18.8 µM) | 50 (≈ 75.3 µM) | 50 (≈ 75.3 µM) | 25 (≈ 37.7 µM) | 50 (≈ 75.3 µM) | 50 (≈ 75.3 µM) | 4.122 | 50 (≈ 75.3 µM) |
| CCn1cc(C(=O)O)c(=O)c2cc(F)c(N3CCN(C(c4cccc5ccccc45)c4nnnn4C4CCCCC4)CC3)cc21 (stereo not given) | 6.25 (≈ 10.3 µM) | 1.4 (≈ 2.3 µM) | 0.77 (≈ 1.26 µM) | 2.9 (≈ 4.76 µM) | 1.6 (≈ 2.62 µM) | 3.12 (≈ 5.12 µM) | 8.2 (≈ 13.4 µM) | 3.7 (≈ 6.07 µM) | 25 (≈ 41 µM) | 4.2 (≈ 6.89 µM) | 1.6 (≈ 2.62 µM) | 5.29 | 3.12 (≈ 5.12 µM) |
| O=C(O)c1cn(Cc2ccc(C(F)(F)F)cc2)c2cc(N3CCN(C(c4ccncc4)c4nnnn4C4CCCCC4)CC3)c(F)cc2c1=O (stereo not given) | 50 (≈ 72.4 µM) | 50 (≈ 72.4 µM) | > 50 | 50 (≈ 72.4 µM) | > 50 | > 50 | 50 (≈ 72.4 µM) | > 50 | 50 (≈ 72.4 µM) | > 50 | 50 (≈ 72.4 µM) | 4.14 | 50 (≈ 72.4 µM) |
| CC(C)(C)n1nnnc1C(c1ccncc1)N1CCN(c2cc3c(cc2F)c(=O)c(C(=O)O)cn3Cc2ccc(C(F)(F)F)cc2)CC1 (stereo not given) | 50 (≈ 75.2 µM) | 50 (≈ 75.2 µM) | 50 (≈ 75.2 µM) | 50 (≈ 75.2 µM) | 50 (≈ 75.2 µM) | 50 (≈ 75.2 µM) | 50 (≈ 75.2 µM) | 50 (≈ 75.2 µM) | 50 (≈ 75.2 µM) | 50 (≈ 75.2 µM) | 50 (≈ 75.2 µM) | 4.123 | 50 (≈ 75.2 µM) |
| COc1ccc(C(c2nnnn2C(C)(C)C)N2CCN(c3cc4c(cc3F)c(=O)c(C(=O)O)cn4Cc3ccc(C(F)(F)F)cc3)CC2)c2ccccc12 (stereo not given) | > 50 | > 50 | 50 (≈ 67.2 µM) | > 50 | > 50 | > 50 | 50 (≈ 67.2 µM) | 50 (≈ 67.2 µM) | > 50 | > 50 | > 50 | 4.172 | 50 (≈ 67.2 µM) |
| CCn1cc(C(=O)O)c(=O)c2cc(F)c(N3CCN(C(c4ccc(OC)c5ccccc45)c4nnnn4C(C)(C)C)CC3)cc21 (stereo not given) | 25 (≈ 40.7 µM) | 18 (≈ 29.3 µM) | 7 (≈ 11.4 µM) | 50 (≈ 81.5 µM) | 50 (≈ 81.5 µM) | 12.5 (≈ 20.4 µM) | 6.9 (≈ 11.2 µM) | 7.5 (≈ 12.2 µM) | 12.5 (≈ 20.4 µM) | 50 (≈ 81.5 µM) | 50 (≈ 81.5 µM) | 4.69 | 12.5 (≈ 20.4 µM) |
| CCn1cc(C(=O)O)c(=O)c2cc(F)c(N3CCN(C(c4ccc(OC)c5ccccc45)c4nnnn4C4CCCCC4)CC3)cc21 (stereo not given) | 12.5 (≈ 19.5 µM) | 4.4 (≈ 6.88 µM) | 1.7 (≈ 2.66 µM) | 6.9 (≈ 10.8 µM) | 3.6 (≈ 5.63 µM) | 6.25 (≈ 9.77 µM) | 9 (≈ 14.1 µM) | 4.06 (≈ 6.35 µM) | 25 (≈ 39.1 µM) | 4.7 (≈ 7.35 µM) | 3.6 (≈ 5.63 µM) | 5.01 | 6.25 (≈ 9.77 µM) |
